Measured values published in patent US20170112748A1, “N-ACYLPEPTIDE DERIVATIVES AND THEIR USES” (NeoStrata Company, Inc., priority 2012, published 2017).
Peptide text beside a SMILES is read from it.

Experiments:
[1] = tested on: MB231 breast cancer cells; conditions: summary table
Procedure: A typical in vitro screen for anti-tumor or anti-cancer effects was carried out as follows.
An aliquot of 2,000 MB231 breast cancer cells (breast carcinoma cells) in 100 μl DMEM complete media (Sigma Chemical Co.) was plated in a 96 well plate containing at a concentration of 20 μg/ml a test substance or control water. To measure proliferation of the cancer cells, an aliquot of 20 μl of MTS reagent (Promega Co.) was added to each well and the cells were incubated at 37° C. for a total of three days. The cells rapidly metabolized MTS reagent and the metabolized MTS reagent was measured at 490 nm at the end of days 1, 2 and 3. The reading was proportional to the number of cancer cells. The decrease in absorbance at each time point indicated fewer cancer cells. At the end of day 3, the decrease in absorbance with respect to the control indicated the inhibition by the test substance.

[2] = knee osteoarthritis, topical maintenance therapy; type: in vivo, human; conditions: Example 25: subject, 1% (w/v) in EP73 topically 2-3 times daily on skin covering the knee areas
Description: (§1) In yet another embodiment, the volunteer subject topically applied once or twice daily the test compositions containing N-acylpeptide derivatives of the present invention on the skin site above arthritic joints or painful muscles to provide therapeutic effects for the systemic disorders via topical administration.

[3] = topical treatment of telangiectatic rosacea, clinical evaluation; type: in vivo, human; conditions: Example 22: subject, face, 1% (w/v) in WEP442 twice daily, two weeks
Description: A subject had rosacea on their face with erythema, inflammation and dilated blood vessels, described as telangiectatic rosacea. The subject topically applied twice daily N-Ac-L-Tyr-L-Tyr-L-Tyr-OEt, 1% (w/v) in WEP442 for two weeks. At the end of two weeks, the erythema and inflammation had diminished, and improvement in rduced size of telangiectatic blood vessels was discernible. The rosacea lesions had approximately 25% improvement as judged by clinical evaluation.

[4] = summary of test results in volunteer subjects, efficacy grades; type: in vivo, human; conditions: efficacy grade
Description: Subject 1. Person had multiple red and itchy inflammation, dermatitis, or eczema lesions, which were resistant to conventional treatments including corticosteroids. Subject 2. Person had small red and itchy lesions which were resistant to topical corticosteroid treatment. Subject 3. Person had multiple red and itchy inflammation, dermatitis, or eczema lesions over the body for many years, which were resistant to conventional treatments including corticosteroids. Subject 4. Person had red and itchy inflammation, dermatitis, or eczema lesions for many years, which were resistant to topical corticosteroid treatment. Subject 5. Person had early stage of aging related skin changes on both forearms as indicated by age spots and wrinkled skin caused by solar damage. Subject 6. Person had age spots, keratoses and wrinkles on both forearms caused by intrinsic and extrinsic aging. Subject 7. Person had age spots, and wrinkles on both forearms caused by intrinsic and extrinsic aging. Subject 8. Person had osteoarthritis of both knees with inflammation and pain for more than 4 years, and had only mild transitory relief from conventional treatments. Subject 9. Person had sensitive skin with inflammatory lesions on the body. Subject 12. Person had dermatitis and inflammatory lesions on the left palm. Subject 14. Person had multiple age spots including lentigines and keratosis on their face. Subject 15. Person had psorisis Subject 16. Person had sensitive skin and eczema for more than 40 years
In another embodiment, the volunteer subject topically applied the test compositions containing N-acylpeptide derivatives of the present invention on involved skin or lesions once or twice daily for several weeks or until the involved lesions completely cleared and clinically changed to normal skin. As a control study, the subject also topically applied a vehicle control composition on the involved skin or lesions twice daily for the same period.
as §1
(§2) In yet another embodiment, the volunteer subject injected intra-articularly into a knee joint a test composition containing a N-acylpeptide derivative of the present invention to improve and reduce arthritic inflammation and pain of the joint.
Some test results are summarized as follows.
DK: Disturbed keratinization AG: Aging related changes of skin, nail and hair DI: Deranged immune disorders and inflammation ND: Nerve disorders CA: Tumors and/or cancers

[5] = knee osteoarthritis, intra-articular injections; type: in vivo, human; conditions: for duration of relief of pains / period of diminished edema and inflammation of the knees and lower legs / time after injection until pains in both knees disappeared: Example 18: subject; for duration of relief of pains / period of diminished edema and inflammation of the knees and lower legs: intra-articular 1 mg each knee; for time after injection until pains in both knees disappeared: intra-articular 1 mg each knee (-OH 1% in water 0.1 ml; -OEt 0.2% with 1% methyl cellulose 0.5 ml)
Procedure: A subject had severe osteoarthritis of both knees for more than four years. Prior therapy had included intra-articular injections of corticosteroids and hyaluronic acid as well as celecoxib (Celebrex) orally (200 mg) twice daily. Such therapy had provided only mild transitory relief of knee pain and edema, and edema of lower legs.
Intra-articular injections of 1% (w/v) N-Ac-L-Tyr-L-Tyr-L-Tyr-OH in water, 0.1 ml (1 mg) as prepared in Example 4 were administered to each knee. The pains in both knees disappeared about 20-30 minutes after the injections, and the relief of pains lasted for 24 hours. Edema and inflammation of the knees and lower legs had diminished for approximately the same 24 hour period. Repeat injections of the same composition were administered once a week for several weeks to provide continued relief of pain, edema and inflammation.
In another trial, intra-articular injections of 0.2% (w/v) N-Ac-L-Tyr-L-Tyr-L-Tyr-OEt with 1% (w/v) methyl cellulose in water, 0.5 ml (1 mg) as prepared in Example 4 were also administered to each knee at different times. The pains in both knees disappeared about 20-30 minutes after the injections, and the relief of pains lasted for 24 hours. Edema and inflammation of the knees and lower legs had diminished for approximately the same 24 hour period.
A subject had osteoarthritis of both knees for more than four years. […] Intra-articular injections of each knee with N-Ac-L-Tyr-L-Tyr-L-Tyr-OH, 7-13 mg in aqueous solution had provided substantial relief of pain in the joints for 2-3 days.
as §2

[6] = topical treatment of bilateral inter-metacarpal atrophy of hands; type: in vivo, human; conditions: Example 23: subject, 2% (w/v) in EP73 two to three times daily, three weeks
Description: A subject had bilateral inter-metacarpal atrophy of both hands with certain restrictions of hand movements. The subject topically applied two to three times daily N-Ac-L-Tyr-L-Tyr-L-Tyr-OEt, 2% (w/v) in EP73 on the back of their left hand, and vehicle control EP73 on the back of their right hand for three weeks.
The subject now, topically applied twice daily N-Ac-L-Tyr-L-Tyr-L-Tyr-NH2, 1% (w/v) in WEP442 on the back of their left hand as a mantenace therapy.

[7] = skin plump / skin thickness test after topical application, caliper measurement; type: in vivo, human; conditions: for increased skin thickness: 1% (w/v) in WEP442 three times daily
Procedure: In one of the studies related to skin changes associated with aging, skin thickness was measured by micrometer calipers as follows.
The skin was grasped with a 2×6 cm metal hinge: the internal faces of which were coated with emery cloth to prevent slippage, and manually squeezed to threshold subject discomfort. Combined thickness of two whole-skin layers including thickness of the two hinge leaves was measured with micrometer calipers. Thickness of the two hinge leaves was subtracted to determine the actual thickness of two whole-skin layers. Triplicate measurements on treated sites were done and an average number was used for calculation of the skin thickness.
In other studies, test sites of skin 17 mm in diameter were used, the circular sites were marked with permanent ink. Intervening control sites were also 17 mm in diameter. Thickness of skin of all sites was measured directly by means of an electronic digital caliper. In this instance the jaws of the caliper were opened to 17 mm, applied with pressure to the skin sites and then closed to firm tightness. Thickness of skin was then read off the screen of the calipers. Measurements of all sites were made in triplicates. […]

[8] = topical treatment of chronic inflammation, erythema, eczema with thick scales and itch, clinical evaluation; type: in vivo, human; conditions: Example 10: subject, -NH2 0.3% and -OEt 0.5% (w/v) in WEP442
Description: The involved skin was divided into two lesions for testing. The subject topically applied twice daily to one lesion, N-Ac-L-Tyr-L-Tyr-L-Tyr-NH2 0.3% (w/v) in WEP442, pH 5.9 solution composition, prepared according to Example 2, and to second lesion, N-Ac-L-Tyr-L-Tyr-L-Tyr-OEt 0.5% (w/v) in WEP 442, pH 6.0, prepared according to Example 2. […] The treated skin had 90-95% improvement as judged by clinical evaluation.

[9] = skin thickness after intradermal injection on the forearms; type: in vivo, human; conditions: Example 15: subject, intradermal 0.05 ml (0.5 mg) of 1% in water, after 8 days
Procedure: In other studies, test sites of skin 17 mm in diameter were used, the circular sites were marked with permanent ink. Intervening control sites were also 17 mm in diameter. Thickness of skin of all sites was measured directly by means of an electronic digital caliper. In this instance the jaws of the caliper were opened to 17 mm, applied with pressure to the skin sites and then closed to firm tightness. Thickness of skin was then read off the screen of the calipers. Measurements of all sites were made in triplicates.
A typical systemic administration by intradermal injection was carried out as follows. A subject, injected intradermally on the forearms the following N-acylpeptide derivative of the present invention:
(a). N-Ac-L-Tyr-L-Tyr-L-Tyr-OH, 0.05 ml (0.5 mg) of 1% in water, after 8 days, there was 10-20% increase in skin thickness of 6 mm size skin at the injection site: effective for aging skin. (b). N-Ac-L-Ala-L-Leu-L-Lys-L-His-L-Arg-NH2 (SEQ ID NO: 51), 0.05 ml (0.5 mg) of 1% in water. (c). N-Bz-L-Ala-L-Leu-L-Lys-L-His-L-Arg-NH2 (SEQ ID NO: 65), 0.05 ml (0.5 mg) of 1% in water. (d). N-Ac-(EEASPEAVAGVGFESK)-NH2 (SEQ ID NO: 126), 0.1 ml (0.4 mg) of 0.4% in water.

[10] = urination (diuretic effect) after topical application on forehead; type: in vivo, human; conditions: Example 17: subject, 0.2% in WEP442 on forehead, about one hour later; repeated next day with same result
Description: The subject then topically applied N-Ac-L-Tyr-L-Tyr-L-Tyr-OH, 0.2% in WEP442 on their forehead. […] The subject repeated the same procedure the next day, and obtained the same result.

CC(=O)N[C@@H](CCC(=O)O)C(=O)N[C@@H](CCC(=O)O)C(=O)N[C@@H](C)C(=O)N[C@@H](CO)C(=O)N1CCC[C@H]1C(=O)N[C@@H](CCC(=O)O)C(=O)N[C@@H](C)C(=O)N[C@H](C(=O)N[C@@H](C)C(=O)NCC(=O)N[C@H](C(=O)NCC(=O)N[C@H](C(=O)N[C@@H](CCC(=O)O)C(=O)N[C@@H](CO)C(=O)N[C@@H](CCCCN)C(N)=O)c1ccccc1)C(C)C)C(C)C [N-Ac-(EEASPEAVAGVGBESK)-NH2] (HELM PEPTIDE1{[ac].E.E.A.S.P.E.A.V.A.G.V.G.[Phg].E.S.K.[am]}$$$$V2.0)
CA (Tumors and/or cancers) [1]: 9% Inhibition

N-Ac-L-Tyr-L-Tyr-L-Tyr-OEt
knee joint pain under maintenance therapy [2]: continued relief of knee joint pains
improvement of rosacea lesions as judged by clinical evaluation [3]: approximately 25%
AG: Aging related changes of skin, nail and hair [4]: 3+ (3+: 75% Efficacy)
DI: Deranged immune disorders and inflammation [4]: 3+ (3+: 75% Efficacy)
DK: Disturbed keratinization [4]: 3+ (3+: 75% Efficacy)
ND: Nerve disorders [4]: 4+ (4+: 95-100% Efficacy)
duration of relief of pains [5]: 24 h
period of diminished edema and inflammation of the knees and lower legs [5]: ~24 h
time after injection until pains in both knees disappeared [5]: 20 to 30 min
inter-metacarpal atrophy of left hand [6]: disappeared almost completely
increase in skin thickness ([7]; Example 9: subject, severe photodamage, forearm spots, 0.5% (w/v) in WEP721 (spot A in WEP442) four times daily, 10 days): 20-30%
increase in skin thickness ([7]; Example 19: subject, right extensor forearm, 0.8% (w/v) in WEP442 three times daily, four weeks): approximately 33%
skin condition of test site vs vehicle control ([7]; Example 20: subject, photoaging forearms, 0.5% (w/v) in WEP442 three times daily, four weeks): palpably raised, smooth, less wrinkled and increased in skin thickness
increased skin thickness ([7]; Example 20: subject, photoaging forearms, four weeks): approximately 12%
skin thickness on the back of left hand (average) ([7]; Example 24: subject, 2% (w/v) in EP73 two to three times daily, six weeks, starting thickness 1.70 mm): 2.59 mm
increase over the starting skin thickness ([7]; Example 24: subject, back of left hand, 2% (w/v) in EP73 two to three times daily, six weeks): 52%
itch [8]: stopped within a few minutes

N-Ac-L-Tyr-L-Tyr-L-Tyr-OH
AG: Aging related changes of skin, nail and hair [4]: 2+ (2+: 50% Efficacy)
DI: Deranged immune disorders and inflammation [4]: 3+ (3+: 75% Efficacy)
DK: Disturbed keratinization [4]: 2+ (2+: 50% Efficacy)
ND: Nerve disorders [4]: 3+ (3+: 75% Efficacy)
increase in skin thickness of 6 mm size skin at the injection site [9]: 10-20%
duration of relief of pains [5]: 24 h
period of diminished edema and inflammation of the knees and lower legs [5]: ~24 h
time after injection until pains in both knees disappeared [5]: 20 to 30 min
duration of substantial relief of pain in the joints ([5]; Example 25: subject, intra-articular 7-13 mg in aqueous solution each knee): 2 to 3 days
urination [10]: urge for urination
increased skin thickness ([7]; Example 21: subject, sun damaged forearms, one week): approximately 29%
